# US20090305993A1, “METHODS AND COMPOSITION FOR THE TREATMENT OF GASTROINTESTINAL DISORDERS” (IRONWOOD PHARMACEUTICALS, INC., priority 2006, published 2009)
# Where a SMILES comes first, the peptide text is derived from it. Bridges are numbered along the chain shown (N, C = ends).
# Key:
# CD rats = assay: rat gastrointestinal transit assay; assay type: in vivo
# Procedure: The gastrointestinal transit assay was also performed in male and female CD rats (Charles River; Wilmington, Mass.) weighing between 136-191 g with an average weight of 167.6 g. The assay was performed as described above for mice except an average of 5-8 animals were used for each test group and test peptide and 5% activated carbon were administered simultaneously (versus 7 minutes apart). In addition, the animals were sacrificed 10 minutes after the administration of peptide and test compound.
# [1] = absorbability study in mice, ELISA detection; assay type: in vivo; conditions: CD1, mouse, serum, IV and oral, FIG. 10a, read-out: bioavailable
# Procedure: To study the pharmacokinetics of SEQ ID NO:3, absorbability studies in mice were performed by administering SEQ ID NO:3 intravaneously via tail vein injection or orally by gavage to 8-week-old CD1 mice. Serum was collected from the animals at various time points and tested for the presence of SEQ ID NO:3 using a competitive enzyme-linked immunoabsorbent assay (Oxoid, ST EIA kit, Cat#TD0700). The assay utilized monoclonal antibodies against ST peptide (antibodies are provided in the Oxoid kit) and synthetically manufactured SEQ ID NO:3.
# female Wistar rats = assay: partial restraint stress-induced hyperalgesia model; assay type: in vivo, rat; conditions: oral 0.3 and 3.0 μg/kg, distending pressure 15 mm Hg, p<0.0001, FIG. 7b
# Procedure: Five groups of female Wistar rats (weighing 200-250 g each), were surgically prepared for electromyography as described (Morteau et al. 1994 Dig Dis Sci 39:1239-48) and were used to evaluate the effects of SEQ ID NO:3 on colorectal sensitivity and compliance after a 2 hour partial restraint stress session. Partial restraint stress (PRS), a relatively mild stress, was induced as previously described (Morteau et al. 1994 Dig Dis Sci 39:1239-48). Female rats were lightly anesthetized with diethyl ether and their shoulders, upper forelimbs and thoracic trunk were wrapped in a confining harness of paper tape to restrict, but not prevent body movements. Control sham-stress animals were anesthetized but not wrapped. […] Electrical activity was recorded with an electroencephalograph (Mini VIII, Alvar, Paris, France) using a short time constant (0.03 sec.) to remove low-frequency signals (<3 Hz) and a paper speed of 3.6 cm/minute. […] Colonic pressure and balloon volume were continuously monitored on a potentiometric recorder (L6514, Linseis, Selb, Germany) with a paper speed of 1.0 cm/minute. The number of spike bursts, corresponding to abdominal contractions, was evaluated per 5-minute period. Colorectal volumes were determined as the maximal volume obtained for each stage of distension using the potentiometric recorder. […] The values were expressed as mean±SEM.
# [2] = oral bioavailability in rats, LCMS; assay type: in vivo, rat; conditions: SEQ ID NO:3 10 mg/kg
# Procedure: Similarly, oral bioavailability was determined in rats using LCMS methodology. Rat plasma samples containing SEQ ID NO:3 and/or SEQ ID NO:6 were extracted using a Waters Oasis MAX 96 well solid phase extraction (SPE) plate. A 200 μL volume of rat plasma was mixed with 200 μL of ^13C9, ^15N—SEQ ID NO:3 in the well of a prepared SPE plate. The samples were drawn through the stationary phase with 15 mm Hg vacuum. All samples were rinsed with 200 μL of 2% ammonium hydroxide in water followed by 200 μL of 20% methanol in water. The samples were eluted with consecutive 100 μL volumes of […] formic acid/water/methanol and 100 μL 5/15/80 formic acid/water/methanol. The samples were dried under nitrogen and resuspended in 100 μL of 20% methanol in water. Samples were analyzed by a Waters Quattro Micro mass spectrometer coupled to a Waters 1525 binary pump with a Waters 2777 autosampler. A 40 μL volume of each sample was injected onto a Thermo Hypersil GOLD C18 column (2.1×50 mm, 5 um). SEQ ID NO:3 and SEQ ID NO:6 were eluted by a gradient over 3 minutes with acetonitrile and water containing 0.05% trifluoroacetic acid. The Quattro Micro mass spectrometer was run in multiple reaction monitoring (MRM) mode using the mass transitions of 764>182 and 682>136 for SEQ ID NO:3 and SEQ ID NO:6 respectively. Using this methodology, SEQ ID NO:3 was dosed orally and by IV to rats at 10 mg/kg. […] In this experiment, the limit of detection (LOD) for SEQ ID NO:6 was 0.78 nM. SEQ ID NO:6 was detected at all time points for the intravenous dose and was not detected beyond 240 min for the oral dose. For non-detected values, the LOD was used as an upper estimate of the concentration of SEQ ID NO:6. The calculated value for AUCp.o., (0-6h) was <1308 nM-min and AUCi.v.,(0-6h) was 1,590,000 nM-min. The 6 h bioavailability of SEQ ID NO:6 determined by circulating plasma levels was 0.08%
compound,measurement,setting,value
"C[C@@H]1NC(=O)[C@@H]2CCCN2C(=O)[C@H](CC(N)=O)NC(=O)[C@@H]2CSSC[C@H](N)C(=O)N[C@H]3CSSC[C@H](NC1=O)C(=O)N[C@@H]([C@@H](C)O)C(=O)NCC(=O)N[C@H](C(=O)N[C@@H](Cc1ccc(O)cc1)C(=O)O)CSSC[C@H](NC(=O)[C@H](Cc1ccc(O)cc1)NC(=O)[C@H](CCC(=O)O)NC3=O)C(=O)N2 [SEQ ID NO:3] (H-CCEYCCNPACTGCY-OH; disulfide 1-6, 2-10, 5-13; N-terminus and C-terminus assumed)","intestinal transit, dose dependence","CD rats; female rats, FIG. 4e",increases in a dose dependent manner
same,intestinal transit,"CD rats; rat GIT assay, FIG. 4d",intestinal transit increases
same,bioavailability,[1],< 2.2%
same,response to CRD after partial restraint stress,female Wistar rats,reduced the response to CRD after PRS
same,6 h bioavailability when AUC values for SEQ ID NO:6 are included,[2],0.13%
